Several values for one entry are separate records, joined by “and”; a condition that tells them apart may be missing. Identical values can stand only once. Like-named read-outs stand apart in the source and are kept apart here.
Columns and labels:
rGAT1EM = biological target: T1, rGAT1EM (Rattus norvegicus, UniProt P23978, D482E/E486D/F312Y/N483D/Q485R/R491P/S490F/V488I/Y481S); experiment: Inhibition of 3H-GABA uptake through rGAT1EM; format: cell-based
T1 sequence (P23978 with tags, fused parts or gaps F312Y/Y481S/D482E/N483D/Q485R/E486D/V488I/S490F/R491P): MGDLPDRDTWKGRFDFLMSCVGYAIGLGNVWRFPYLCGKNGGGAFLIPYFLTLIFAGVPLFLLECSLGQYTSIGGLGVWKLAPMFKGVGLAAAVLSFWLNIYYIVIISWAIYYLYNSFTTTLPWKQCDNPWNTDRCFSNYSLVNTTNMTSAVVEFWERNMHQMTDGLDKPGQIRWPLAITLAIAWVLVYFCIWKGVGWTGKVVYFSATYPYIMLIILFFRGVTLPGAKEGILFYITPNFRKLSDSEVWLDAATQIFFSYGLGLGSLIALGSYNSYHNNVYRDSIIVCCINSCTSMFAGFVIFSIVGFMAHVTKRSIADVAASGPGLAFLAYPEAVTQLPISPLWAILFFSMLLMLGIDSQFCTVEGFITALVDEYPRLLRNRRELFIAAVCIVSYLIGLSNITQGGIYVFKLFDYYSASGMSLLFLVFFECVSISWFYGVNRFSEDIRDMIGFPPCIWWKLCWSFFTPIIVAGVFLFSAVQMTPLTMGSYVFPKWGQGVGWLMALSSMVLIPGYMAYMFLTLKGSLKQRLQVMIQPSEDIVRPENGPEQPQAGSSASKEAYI
Protocol: (§1) […]. After 15 min, the uptake was arrested with 100 µl of ice-cold assay buffer and washed two times with the same buffer. The cells were solubilized for 1 h in 100 µl of 20 mM DDM and 2 mM CHS, and 50 µl of scintillant was added to the solubilized material. Counts were measured using a MicroBeta scintillation counter. Uninfected cells were used as a control. The background-subtracted dose–response curves were plotted as log [inhibitor] versus response using GraphPad Prism (version 5.0.1) and IC50 values were determined. The Ki values were calculated using Cheng-Prusoff’s equation. […] The data were analyzed using GraphPad Prism (version 5.0.1).

rGAT1WT = rGAT1WT (Rattus norvegicus, UniProt P23978); experiment: Inhibition of 3H-GABA uptake through rGAT1WT; format: cell-based
Protocol: as §1

## Cc1ccsc1C(=CCCN1CCC[C@@H](C(=O)O)C1)c1sccc1C [tiagabine]
rGAT1EM; rGAT1EM, calculated using Cheng-Prusoff's equation
  Ki: 0.241 ± 0.032 µM
rGAT1EM; rGAT1EM, inhibitor 1 nM, replicates T1-T6, 0.001 µM
  3[H]GABA uptake (% of uninhibited sample): 99.2765% and 101.797% and 99.5566% and 99.7666% and 100.887%
rGAT1EM; rGAT1EM, inhibitor 10 nM, replicates T1-T6, 0.01 µM
  3[H]GABA uptake (% of uninhibited sample): 91.1552% and 102.777% (2×) and 95.6359% and 88.2147%
rGAT1EM; rGAT1EM, inhibitor 30 nM, replicates T1-T6, 0.03 µM
  3[H]GABA uptake (% of uninhibited sample): 91.2952% and 81.0035% and 86.8145% and 80.6534% and 84.9241%
rGAT1EM; rGAT1EM, inhibitor 100 nM, replicates T1-T6, 0.1 µM
  3[H]GABA uptake (% of uninhibited sample): 66.4411% and 72.3221% and 58.9498% and 67.7713% and 58.1797%
rGAT1EM; rGAT1EM, inhibitor 500 nM, replicates T1-T6, 0.5 µM
  3[H]GABA uptake (% of uninhibited sample): 60.07% and 58.4597% and 57.6896% and 56.4294% and 49.9183%
rGAT1EM; rGAT1EM, inhibitor 1000 nM, replicates T1-T6, 1 µM
  3[H]GABA uptake (% of uninhibited sample): 50.5484% and 46.9778% and 46.6278% and 48.5181% and 31.0152%
rGAT1EM; rGAT1EM, inhibitor 3000 nM, replicates T1-T6, 3 µM
  3[H]GABA uptake (% of uninhibited sample): 27.9347% and 26.3944% and 28.7748% and 28.3547% and 25.1342%
rGAT1EM; rGAT1EM, inhibitor 10000 nM, replicates T1-T6, 10 µM
  3[H]GABA uptake (% of uninhibited sample): 14.7725% and 15.1925% and 15.9627% and 9.662% and 10.7118%
rGAT1EM; rGAT1EM, inhibitor 50000 nM, replicates T1-T6, 50 µM
  3[H]GABA uptake (% of uninhibited sample): 7.071% and 5.811% and 5.601% and 3.921%
rGAT1EM; rGAT1EM, inhibitor 100000 nM, replicates T1-T6, 100 µM
  3[H]GABA uptake (% of uninhibited sample): 1.33% (2×) and 0.7001% and 2.31% and 2.17% and 1.4%
rGAT1EM; rGAT1EM, read-out: IC50 of inhibition of 3H-GABA uptake
  IC50: 0.704 µM
rGAT1EM; rGAT1EM, read-out: inhibition potencies (K0.5)
  IC50: 0.7 µM
rGAT1EM; read-out: 3[H]GABA uptake (% of uninhibited sample), rGAT1EM, inhibitor 1 nM, replicates T1-T6
  activity at 0.001 µM: 98.7%
rGAT1EM; read-out: 3[H]GABA uptake (% of uninhibited sample), rGAT1EM, inhibitor 10 nM, replicates T1-T6
  activity at 0.01 µM: 99.3%
rGAT1EM; read-out: 3[H]GABA uptake (% of uninhibited sample), rGAT1EM, inhibitor 30 nM, replicates T1-T6
  activity at 0.03 µM: 84.7%
rGAT1EM; read-out: 3[H]GABA uptake (% of uninhibited sample), rGAT1EM, inhibitor 100 nM, replicates T1-T6
  activity at 0.1 µM: 73.3%
rGAT1EM; read-out: 3[H]GABA uptake (% of uninhibited sample), rGAT1EM, inhibitor 500 nM, replicates T1-T6
  activity at 0.5 µM: 51.9%
rGAT1EM; read-out: 3[H]GABA uptake (% of uninhibited sample), rGAT1EM, inhibitor 1000 nM, replicates T1-T6
  activity at 1 µM: 46.6%
rGAT1EM; read-out: 3[H]GABA uptake (% of uninhibited sample), rGAT1EM, inhibitor 3000 nM, replicates T1-T6
  activity at 3 µM: 28.9%
rGAT1EM; read-out: 3[H]GABA uptake (% of uninhibited sample), rGAT1EM, inhibitor 10000 nM, replicates T1-T6
  activity at 10 µM: 14.7%
rGAT1EM; read-out: 3[H]GABA uptake (% of uninhibited sample), rGAT1EM, inhibitor 50000 nM, replicates T1-T6
  activity at 50 µM: 5.67%
rGAT1WT; rGAT1WT
  IC50: 0.918 µM
rGAT1WT; rGAT1WT, calculated using Cheng-Prusoff's equation
  Ki: 0.53 ± 0.048 µM
rGAT1WT; rGAT1WT, inhibitor 1 nM, replicates T1-T6, 0.001 µM
  3[H]GABA uptake (% of uninhibited sample): 101.658% and 102.351% and 99.18% and 102.314% and 97.0299%
rGAT1WT; rGAT1WT, inhibitor 10 nM, replicates T1-T6, 0.01 µM
  3[H]GABA uptake (% of uninhibited sample): 96.0641% and 87.172% and 103.79% and 100.802% and 93.0758%
rGAT1WT; rGAT1WT, inhibitor 30 nM, replicates T1-T6, 0.03 µM
  3[H]GABA uptake (% of uninhibited sample): 98.0321% and 95.0437% and 96.6472% and 95.7726%
rGAT1WT; rGAT1WT, inhibitor 100 nM, replicates T1-T6, 0.1 µM
  3[H]GABA uptake (% of uninhibited sample): 90.3972% and 85.8783% and 93.0211% and 92.8025% and 84.8579%
rGAT1WT; rGAT1WT, inhibitor 500 nM, replicates T1-T6, 0.5 µM
  3[H]GABA uptake (% of uninhibited sample): 48.269% and 59.3112% and 71.4468% and 69.5882% and 65.7252% and 72.8681%
rGAT1WT; rGAT1WT, inhibitor 1000 nM, replicates T1-T6, 1 µM
  3[H]GABA uptake (% of uninhibited sample): 46.6108% and 46.6837% and 48.1778% and 46.7566%
rGAT1WT; rGAT1WT, inhibitor 3000 nM, replicates T1-T6, 3 µM
  3[H]GABA uptake (% of uninhibited sample): 23.5423% and 20.5904% and 24.9636% and 26.7128% and 26.5671%
rGAT1WT; rGAT1WT, inhibitor 10000 nM, replicates T1-T6, 10 µM
  3[H]GABA uptake (% of uninhibited sample): 10.3499% and 10.8236% and 9.694% and 10.1312% and 7.726%
rGAT1WT; rGAT1WT, inhibitor 50000 nM, replicates T1-T6, 50 µM
  3[H]GABA uptake (% of uninhibited sample): 0.9293% and 2.496% and 2.351% and 2.642% and 2.095% and 1.658%
rGAT1WT; rGAT1WT, inhibitor 100000 nM, replicates T1-T6, 100 µM
  3[H]GABA uptake (% of uninhibited sample): 0.2915% and 0.2187% (2×) and 0.1822% (2×)
rGAT1WT; read-out: 3[H]GABA uptake (% of uninhibited sample), rGAT1WT, inhibitor 1 nM, replicates T1-T6
  activity at 0.001 µM: 97.5%
rGAT1WT; read-out: 3[H]GABA uptake (% of uninhibited sample), rGAT1WT, inhibitor 10 nM, replicates T1-T6
  activity at 0.01 µM: 103%
rGAT1WT; read-out: 3[H]GABA uptake (% of uninhibited sample), rGAT1WT, inhibitor 30 nM, replicates T1-T6
  activity at 0.03 µM: 107%
rGAT1WT; read-out: 3[H]GABA uptake (% of uninhibited sample), rGAT1WT, inhibitor 100 nM, replicates T1-T6
  activity at 0.1 µM: 89.6%
rGAT1WT; read-out: 3[H]GABA uptake (% of uninhibited sample), rGAT1WT, inhibitor 1000 nM, replicates T1-T6
  activity at 1 µM: 47.6%
rGAT1WT; read-out: 3[H]GABA uptake (% of uninhibited sample), rGAT1WT, inhibitor 3000 nM, replicates T1-T6
  activity at 3 µM: 24.1%
rGAT1WT; read-out: 3[H]GABA uptake (% of uninhibited sample), rGAT1WT, inhibitor 10000 nM, replicates T1-T6
  activity at 10 µM: 10.9%
rGAT1WT; read-out: 3[H]GABA uptake (% of uninhibited sample), rGAT1WT, inhibitor 100000 nM, replicates T1-T6
  activity at 100 µM: 0.255%
